Assay results from PMC2150390, “High-dose cyclosporin with etoposide--toxicity and pharmacokinetic interaction in children with solid tumours” (British Journal of Cancer, 1998).

Test: Etoposide pharmacokinetics with and without cyclosporin (plasma HPLC, non-compartmental analysis)
Format: in vivo, human
Settings: for Clearance Cl+ / Half-life t1/2+ / Area under drug concentration curve AUC+: with cyclosporin; for Clearance Cl+ / Half-life t1/2+ / Area under drug concentration curve AUC+ / Clearance Cl- / Half-life t1/2- / Area under drug concentration curve AUC-: etoposide 150 mg m-2 over 1 hour; for Area under drug concentration curve AUC+ / Area under drug concentration curve AUC-: plasma HPLC, non-compartmental; for Median area under the concentration time curve for etoposide: etoposide 150 mg m-2 i.v.
[1] = Table 3, patient 1, cyclosporin schedule A
[2] = Table 3, patient 1, cyclosporin schedule A, without cyclosporin
[3] = Table 3, patient 2, cyclosporin schedule A
[4] = Table 3, patient 2, cyclosporin schedule A, without cyclosporin
[5] = Table 3, patient 4, cyclosporin schedule A
[6] = Table 3, patient 4, cyclosporin schedule A, without cyclosporin
[7] = Table 3, patient 5, cyclosporin schedule A
[8] = Table 3, patient 5, cyclosporin schedule A, without cyclosporin
[9] = Table 3, patient 6, cyclosporin schedule A
[10] = Table 3, patient 6, cyclosporin schedule A, without cyclosporin
[11] = Table 3, patient 7, cyclosporin schedule A
[12] = Table 3, patient 7, cyclosporin schedule A, without cyclosporin
[13] = Table 3, patient 8, cyclosporin schedule A
[14] = Table 3, patient 8, cyclosporin schedule A, without cyclosporin
[15] = Table 3, patient 9, cyclosporin schedule B
[16] = Table 3, patient 9, cyclosporin schedule B, without cyclosporin
[17] = Table 3, patient 10, cyclosporin schedule B
[18] = Table 3, patient 10, cyclosporin schedule B, without cyclosporin
[19] = Table 3, patient 11, cyclosporin schedule B
[20] = Table 3, patient 11, cyclosporin schedule B, without cyclosporin
[21] = Table 3, patient 13, cyclosporin schedule B
[22] = Table 3, patient 13, cyclosporin schedule B, without cyclosporin
[23] = Table 3, patient 14, cyclosporin schedule A
[24] = Table 3, patient 14, cyclosporin schedule A, without cyclosporin
[25] = Table 3, patient 15, cyclosporin schedule A
[26] = Table 3, patient 15, cyclosporin schedule A, without cyclosporin
[27] = Table 3, patient 17, cyclosporin schedule A
[28] = Table 3, patient 17, cyclosporin schedule A, without cyclosporin
[29] = Table 3, patient 18, cyclosporin schedule A
[30] = Table 3, patient 18, cyclosporin schedule A, without cyclosporin

Mean change in etoposide AUC with cyclosporin (15 patients, paired, P < 0.001): +89% | Mean change in etoposide clearance with cyclosporin (15 patients, paired, P < 0.001): -48% | Clearance Cl+ [1]: 15.7 mL/min | Half-life t1/2+ [1]: 5.08 h | Area under drug concentration curve AUC+ [1]: 14.6 mg·min/mL | Clearance Cl- [2]: 28.5 mL/min | Half-life t1/2- [2]: 3.27 h | Area under drug concentration curve AUC- [2]: 8.1 mg·min/mL | Clearance Cl+ [3]: 8.6 mL/min | Half-life t1/2+ [3]: 9.28 h | Area under drug concentration curve AUC+ [3]: 26.2 mg·min/mL | Clearance Cl- [4]: 22.0 mL/min | Half-life t1/2- [4]: 3.43 h | Area under drug concentration curve AUC- [4]: 10.2 mg·min/mL | Clearance Cl+ [5]: 18.6 mL/min | Half-life t1/2+ [5]: 5.75 h | Area under drug concentration curve AUC+ [5]: 16.9 mg·min/mL | Clearance Cl- [6]: 36.5 mL/min | Half-life t1/2- [6]: 5.08 h | Area under drug concentration curve AUC- [6]: 8.6 mg·min/mL | Clearance Cl+ [7]: 15.2 mL/min | Half-life t1/2+ [7]: 3.15 h | Area under drug concentration curve AUC+ [7]: 7.9 mg·min/mL | Clearance Cl- [8]: 30.2 mL/min | Half-life t1/2- [8]: 2 h | Area under drug concentration curve AUC- [8]: 3.8 mg·min/mL | Clearance Cl+ [9]: 11.9 mL/min | Half-life t1/2+ [9]: 3.82 h | Area under drug concentration curve AUC+ [9]: 8.8 mg·min/mL | Clearance Cl- [10]: 15.9 mL/min | Half-life t1/2- [10]: 2.75 h | Area under drug concentration curve AUC- [10]: 6.6 mg·min/mL | Clearance Cl+ [11]: 10.8 mL/min | Half-life t1/2+ [11]: 4.72 h | Area under drug concentration curve AUC+ [11]: 10.7 mg·min/mL | Clearance Cl- [12]: 21.9 mL/min | Half-life t1/2- [12]: 1.72 h | Area under drug concentration curve AUC- [12]: 5.3 mg·min/mL | Clearance Cl+ [13]: 9.9 mL/min | Half-life t1/2+ [13]: 6.9 h | Area under drug concentration curve AUC+ [13]: 10.1 mg·min/mL | Clearance Cl- [14]: 27.2 mL/min | Half-life t1/2- [14]: 2.05 h | Area under drug concentration curve AUC- [14]: 3.6 mg·min/mL | Clearance Cl+ [15]: 10.0 mL/min | Half-life t1/2+ [15]: 4.9 h | Area under drug concentration curve AUC+ [15]: 16.4 mg·min/mL | Clearance Cl- [16]: 25.8 mL/min | Half-life t1/2- [16]: 3.47 h | Area under drug concentration curve AUC- [16]: 6.4 mg·min/mL | Clearance Cl+ [17]: 11.6 mL/min | Half-life t1/2+ [17]: 6.93 h | Area under drug concentration curve AUC+ [17]: 14.2 mg·min/mL | Clearance Cl- [18]: 28.6 mL/min | Half-life t1/2- [18]: 1.37 h | Area under drug concentration curve AUC- [18]: 5.8 mg·min/mL | Clearance Cl+ [19]: 16.2 mL/min | Half-life t1/2+ [19]: 5.23 h | Area under drug concentration curve AUC+ [19]: 14.3 mg·min/mL | Clearance Cl- [20]: 32.5 mL/min | Half-life t1/2- [20]: 2.93 h | Area under drug concentration curve AUC- [20]: 7.4 mg·min/mL | Clearance Cl+ [21]: 7.8 mL/min | Half-life t1/2+ [21]: 4.93 h | Area under drug concentration curve AUC+ [21]: 13.1 mg·min/mL | Clearance Cl- [22]: 15.3 mL/min | Half-life t1/2- [22]: 2.47 h | Area under drug concentration curve AUC- [22]: 6.7 mg·min/mL | Clearance Cl+ [23]: 14.3 mL/min | Half-life t1/2+ [23]: 6.68 h | Area under drug concentration curve AUC+ [23]: 15.8 mg·min/mL | Clearance Cl- [24]: 29.3 mL/min | Half-life t1/2- [24]: 2.57 h | Area under drug concentration curve AUC- [24]: 7.7 mg·min/mL | Clearance Cl+ [25]: 22.6 mL/min | Half-life t1/2+ [25]: 6.78 h | Area under drug concentration curve AUC+ [25]: 12.9 mg·min/mL | Clearance Cl- [26]: 38.1 mL/min | Half-life t1/2- [26]: 4.3 h | Area under drug concentration curve AUC- [26]: 7.7 mg·min/mL | Clearance Cl+ [27]: 20.2 mL/min | Half-life t1/2+ [27]: 6.12 h | Area under drug concentration curve AUC+ [27]: 13.4 mg·min/mL | Clearance Cl- [28]: 29.1 mL/min | Half-life t1/2- [28]: 3.85 h | Area under drug concentration curve AUC- [28]: 9.3 mg·min/mL | Clearance Cl+ [29]: 10.1 mL/min | Half-life t1/2+ [29]: 11.4 h | Area under drug concentration curve AUC+ [29]: 21.5 mg·min/mL | Clearance Cl- [30]: 12.8 mL/min | Half-life t1/2- [30]: 10.3 h | Area under drug concentration curve AUC- [30]: 17.1 mg·min/mL | Percentage increase in etoposide AUC, mean (cyclosporin 3-h infusion): 106% | Percentage increase in etoposide AUC, mean (cyclosporin 24-h infusion): 89% | Median area under the concentration time curve for etoposide (with high-dose cyclosporin): 12.5 mg·min/mL | Median area under the concentration time curve for etoposide (without cyclosporin): 7.2 mg·min/mL
SMILES: COc1cc([C@@H]2c3cc4c(cc3[C@@H](O[C@@H]3O[C@@H]5CO[C@@H](C)O[C@H]5[C@H](O)[C@H]3O)[C@H]3COC(=O)[C@H]23)OCO4)cc(OC)c1O [etoposide]
